According to US20260167629A1, “NOVEL INDAZOLE DERIVATIVE OR PHARMACEUTICALLY ACCEPTABLE SALT THEREOF, AND USE THEREOF” (KOREA UNIVERSITY RESEARCH AND BUSINESS FOUNDATION, priority 2022, published 2026):

What was measured:
[1] = tested on: Hsp90 clients in BT474 cell line; assay: Western blotting of Hsp90 clients, BT474; type: cell-based; conditions: BT474, 10 μM, 72 hours
Experimental: To perform western blotting, BT-474 and JIMT-1 cell lines were treated with control (DMSO), compound 18c, and compound 11k at concentrations of 10 μM each for 72 hours, and then lysed in lysis buffer (30 mM NaCl, 0.5% Triton X-100, 50 mM Tris-HCl; pH 7.4) containing phosphatase and protease inhibitors. The proteins present in the supernatant were harvested. The protein concentration was measured using a Bradford protein assay kit, and 30 μg of protein was taken equally from each experimental group. These proteins were electrophoresed on SDS-Polyacrylamide gels (8-15%), and electrically transferred to a nitrocellulose membrane. The membrane was reacted with primary antibodies [pro PARP (1:1000), cleaved PARP (1:2000), cleaved caspase-3 (1:1000), cleaved caspase-7 (1:1000), β-actin (1:5000)] diluted in 5% bovine serum albumin (BSA) at 4° C. for 24 hours, followed by a secondary antibody, horseradish peroxidase (HRP)-conjugated rabbit IgG (1:3000) for 2 hours at room temperature. The signal intensity of the above proteins was checked by color development using an Enhanced Chemiluminescence Kit and x-ray film.
Western blotting was used to investigate whether Hsp90 inhibitors, compound 18c (formula 1-16) and compound 11k (formula 1-7), could downregulate the expression and activity (phosphorylation) of HER2 and HER3, which are representative clients of Hsp90, in BT474 and JIMT-1 cell lines. The expression of Akt, MEK, ERK, Bcl-2, Cyclin D1, and Survivin, which are key factors for cell survival as Hsp90 clients, was also investigated. The western blotting was performed by the method that was used in Experimental Example 2.3.
The BT474 and JIMT-1 cell lines were treated with compound 18c and compound 11k at a concentration of 10 μM for 72 hours.

leukemia cell line HL-60 = assay: MTS cell viability assay in HL-60; type: cell-based; conditions: HL-60, 0.1-20 μM, 72 hours
Experimental: (§1) Specifically, cells were attached to 96 well plates for 24 hours, and then treated with the indazole derivatives for 72 hours. Thereafter, the cells were chromogenized with MTS for 4 hours, and the absorbance was measured at 490 nm using a Spectramax Plus384 microplate analyzer. The significance between the control group and the experimental group was verified using an unpaired Students t-test (*p<0.01; DMSO control vs indazole series).
(§2) In addition to the breast cancer cell line, a leukemia cell line HL-60, a liver cancer cell line HepG2, a colorectal cancer cell line HCT116, a prostate cancer cell line Du145, an ovarian cancer cell line SKOV3, and non-small cell lung cancer cell lines NCI-H1299 and A549 were treated with compound 11k (formula 1-7) at concentrations of 0 (DMSO), 0.1, 0.5, 1, 2, 5, 10, and 20 μM, respectively, for 72 hours, and then cell viability was measured using the MTS assay technique as explained by the description of Experimental Example 1. The significance between the control group and the experimental group was verified using an unpaired Students t-test (*p<0.01; DMSO control vs compound 11k).

[2] = tested on: liver cancer cell line HepG2; assay: MTS cell viability assay in HepG2; type: cell-based; conditions: HepG2, 0.1-20 μM, 72 hours
Experimental: as §1, §2

[3] = tested on: colorectal cancer cell line HCT116; assay: MTS cell viability assay in HCT116; type: cell-based; conditions: HCT116, 0.1-20 μM, 72 hours
Experimental: as §1, §2

[4] = tested on: prostate cancer cell line Du145; assay: MTS cell viability assay in Du145; type: cell-based; conditions: Du145, 0.1-20 μM, 72 hours
Experimental: as §1, §2

[5] = tested on: ovarian cancer cell line SKOV3; assay: MTS cell viability assay in SKOV3; type: cell-based; conditions: SKOV3, 0.1-20 μM, 72 hours
Experimental: as §1, §2

[6] = tested on: non-small cell lung cancer cell line NCI-H1299; assay: MTS cell viability assay in NCI-H1299; type: cell-based; conditions: NCI-H1299, 0.1-20 μM, 72 hours
Experimental: as §1, §2

[7] = tested on: non-small cell lung cancer cell line A549; assay: MTS cell viability assay in A549; type: cell-based; conditions: A549, 0.1-20 μM, 72 hours
Experimental: as §1, §2

[8] = tested on: JIMT-1 breast cancer cell line xenograft; assay: Tumor growth in JIMT-1 xenograft mouse model, combination with paclitaxel; type: in vivo, Balb/c nude mice
Experimental: This experiment was performed in an in vivo environment using a xenograft mouse model transplanted with the JIMT-1 breast cancer cell line.
6-week-old mice (Balb/c nude mice) were purchased and raised in an environment where they could freely access food and water. The mice were acclimated for more than 7 days, and then were transplanted with tumor cells. Tumor cells were injected subcutaneously into the mammary gland tissue of JIMT-1 breast cancer cells at a density of 3×10^6 cells/mL per individual, and when the tumor reached a size of 50 to 100 mm^3, the indazole derivative of the present disclosure was administered intraperitoneally, and the tumor growth was measured.

[9] = Toxicity in JIMT-1 xenograft mice, combination with paclitaxel (body weight, AST, ALT, BUN); type: in vivo, Balb/c nude mice; conditions: combination study

Row | Structure (SMILES) | expression of HER2 and HER3 [1] | expression of activated forms phospho-HER2 and phospho-HER3 [1] | expression of cell proliferation factors Akt, MEK, ERK, Bcl-2, Cyclin D1, and Survivin [1] | cell viability (leukemia cell line HL-60) | cell viability [2] | cell viability [3] | cell viability [4] | cell viability [5] | cell viability [6] | cell viability [7] | tumor weight ([8]; measured after tumor resection) | tumor volume ([8]; measured at 40 days after drug administration) | AST and ALT levels, BUN assay ([9]; blood of the mouse model) | body weight [9]
1 | COc1c(C(=O)Nc2ccc3c(C)nn(CCC4CCN(C)CC4)c3c2)ccc2c1C=CC(C)(C)O2 [compound 11k, 5-Methoxy-2,2-dimethyl-N-(3-methyl-1-(2-(1-methylpiperidin-4-yl)ethyl)-1H-indazol-6-yl)-2H-chromene-6-carboxamide] | decreased | significantly reduced | inhibited the expression | effective in inhibiting cell viability | effective in inhibiting cell viability | effective in inhibiting cell viability | effective in inhibiting cell viability | effective in inhibiting cell viability | effective in inhibiting cell viability | effective in inhibiting cell viability | 500 mg | 786.392 mm^3 | levels similar to those of the control group | remained unchanged
2 | COCCn1nc(NC(=O)c2ccc3c(c2OC)C=CC(C)(C)O3)c2ccccc21 [compound 18c, 5-Methoxy-N-(1-(2-methoxyethyl)-1H-indazol-3-yl)-2,2-dimethyl-2H-chromene-6-carboxamide] | decreased | significantly reduced | inhibited the expression | – | – | – | – | – | – | – | – | – | – | –
